Patent publication US6555501B1, “4-trifluoromethyl-3-oxazolylpyridines, processes for their preparation, compositions comprising them and their use as pesticides” (Hoechst Schering AgrEvo GmbH, priority 1998, dated 2003)

What was measured:
Format in all cases: in vivo
[1] = system: black bean aphids (Aphis fabae); assay: Black bean aphid dip test on broad bean (plants and aphids dipped in the preparation); conditions: 300 ppm (content of active compound), Vicia faba plants and aphids dipped 5 seconds, after 3 and 6 days storage, read-out: mortality among the aphids
Method: Germinated broad bean seeds (Vicia faba) with radicles were transferred into brown glass bottles filled with tap water and subsequently populated with approximately 100 black bean aphids (Aphis fabae). Plants and aphids were then dipped for 5 seconds into an aqueous solution of the formulated preparation to be examined. After the solution had dripped off, plants and animals were kept in a climatized chamber (16 hours of light/day, 25° C., 40-60% relative atmospheric humidity). After 3 and 6 days storage, the effect of the preparation on the aphids was determined. At a concentration of 300 ppm (based on the content of active compound), the preparations of Example Nos. 1/37, 1/78, 1/136, 1/94, 1/174, 1/14, 1/125, 1/187, 1/17, 1/84, 1/52, 1/82, 1/70, 3/74, 1/54, 1/81, 1/42, 3/161, 1/186 effected a mortality of 90-100% among the aphids. (The active compounds are numbered with the Table/No. in the table).

[2] = system: black bean aphids (Aphis fabae); assay: Root-systemic activity against black bean aphids on broad bean; conditions: 30 ppm (content of active compound), 4 ml solution pipetted into the bottle with Vicia faba, after 3 and 6 days storage, read-out: mortality among the aphids by root-systemic action
Method: Germinated broad bean seeds (Vicia faba) with radicles were transferred into brown glass bottles filled with tap water. Four milliliters of an aqueous solution of the formulated preparation to be examined were pipetted into the brown glass bottle. The broad bean was subsequently heavily populated with approximately 100 black bean aphids (Aphis fabae). Plants and animals were then stored in a climatized chamber (16 hours of light/day, 25° C., 40-60% relative atmospheric humidity). After 3 and 6 days storage, the root-systemic activity of the preparation on the aphids was determined. At a concentration of 30 ppm (based on the content of active compound), the preparations of Example Nos. 1/53, 1/26, 1/37, 1/78, 1/136, 1/56, 1/94, 1/174, 1/14, 1/187, 1/84, 1/52, 1/82, 1/70, 1/32, 3/74, 1/54, 1/81, 1/42, 3/227, 3/161 effected a mortality of 90-100% among the aphids by root-systemic action.

[3] = system: larvae (L3 stage) of the rice leafhopper species Nilaparvata lugens; assay: Rice leafhopper test on dipped rice plants; conditions: 144 h, 300 ppm (content of active compound), rice leaves dipped 5 seconds, after 6 days storage, read-out: mortality among the leafhopper larvae
Method: The leaves of 12 rice plants having a stem length of 8 cm were dipped for 5 seconds into an aqueous solution of the formulated preparation to be examined. After the solution had dripped off, the rice plants treated in this manner were placed in a Petri dish and populated with approximately 20 larvae (L3 stage) of the rice leafhopper species Nilaparvata lugens. The Petri dish was closed and stored in a climatized chamber (16 hours of light/day, 25° C., 40-60% relative atmospheric humidity). After 6 days storage, the mortality among the leafhopper larvae was determined. At a concentration of 300 ppm (based on the content of active compound), the preparations of Example Nos. 1/53, 1/26, 1/164, 1/174, 1/82, 1/42 effected a mortality of 90-100%.

Row | SMILES | mortality at 300 ppm [1] [%] | mortality at 30 ppm [2] [%] | mortality at 300 ppm [3] [%]
1 | CCCSCc1cnc(-c2cnccc2C(F)(F)F)o1 [1/136, 5-n-Propylthiomethyl-2-(4-trifluoromethyl-3-pyridyl)-oxazole] | 90 to 100 | 90 to 100 | –
2 | O=Cc1cnc(-c2cnccc2C(F)(F)F)o1 [1/164, 5-formyl-2-(4-trifluoromethyl-3-pyridyl)-oxazole] | – | – | 90 to 100
